# Test results taken from publication PMC12186298, “Phase 1 clinical trial of eneboparatide, a novel PTH receptor 1 agonist” (Endocrine Connections, 2025).
# Peptide text beside a SMILES is read from it.
# Tested on: healthy subjects
# Test: Safety and tolerability, adverse events, Part B MAD
# [1] = Part B, 10 μg/day sc 14 days, n = 8
# [2] = Part B, 20 μg/day sc 14 days, n = 8
# [3] = Part B, 40 μg/day sc 14 days, n = 8
# [4] = Part B, 60 μg/day sc 14 days, n = 8
# [5] = Part B, 80 μg/day sc 14 days, n = 8
# [6] = Part B, total eneboparatide, n = 40
# Experimental: A total of five sequential cohorts were included in Part B with ten subjects in each cohort (eight receiving eneboparatide at a dose of 10, 20, 40, 60 and 80 μg/day, respectively, and two receiving placebo in a randomized and double-blind manner). […] They were resident in the study unit until day 17 and FU evaluation was performed on day 21–25.
# Safety and tolerability assessments consisted of adverse events (AEs), clinical laboratory (clinical chemistry, haematology, coagulation, and urinalysis), vital signs (blood pressure, pulse rate, respiratory rate, and temperature), 12-lead ECG (Part B), 24 h continuous cardiac monitoring (telemetry; Part A), body weight, physical examination, injection site reaction, and measurement of antidrug antibodies (ADA) in plasma (Part B).
smiles,measurement,setting,value
CC[C@H](C)[C@H](NC(=O)[C@H](CCC(=O)O)NC(=O)[C@H](C)NC(=O)[C@@H](NC(=O)[C@H](Cc1c[nH]cn1)NC(=O)[C@@H](NC(=O)[C@H](CCC(=O)O)NC(=O)[C@H](C)NC(=O)[C@@H](NC(=O)[C@H](CC(C)C)NC(=O)[C@H](CCCCN)NC(=O)[C@H](Cc1c[nH]cn1)NC(=O)[C@H](CC(C)C)NC(=O)[C@H](Cc1ccccc1)NC(=O)[C@H](C)NC(=O)[C@H](CCCNC(=N)N)NC(=O)[C@H](CCCNC(=N)N)NC(=O)[C@H](CCCNC(=N)N)NC(=O)[C@H](C)NC(=O)[C@H](CC(=O)O)NC(=O)[C@H](CCC(N)=O)NC(=O)[C@@H](NC(=O)[C@H](Cc1c[nH]c2ccccc12)NC(=O)[C@H](CCCCN)NC(=O)[C@H](C)NC(=O)[C@H](CCCNC(=N)N)NC(=O)[C@H](CCC(N)=O)NC(=O)[C@H](Cc1c[nH]cn1)NC(=O)[C@H](CCSC)NC(=O)[C@H](CC(C)C)NC(=O)[C@H](CCC(N)=O)NC(=O)[C@@H](NC(=O)[C@H](CCC(=O)O)NC(=O)[C@H](C)NC(=O)[C@@H](NC(=O)[C@H](C)N)C(C)C)[C@@H](C)CC)[C@@H](C)CC)[C@@H](C)CC)[C@@H](C)CC)[C@@H](C)O)C(=O)O [eneboparatide] (H-AVAEIQLMHQRAKWIQDARRRAFLHKLIAEIHTAEI-OH; N-terminus and C-terminus assumed),"Abdominal pain, subjects with TEAE",[1],0
same,"Application site irritation, subjects with TEAE",[1],0
same,"Catheter site haematoma, subjects with TEAE",[1],3
same,"Catheter site pain, subjects with TEAE",[1],1
same,"Decreased appetite, subjects with TEAE",[1],0
same,"Diarrhoea, subjects with TEAE",[1],0
same,"Dizziness, subjects with TEAE",[1],0
same,"Dry skin, subjects with TEAE",[1],0
same,"Dyspepsia, subjects with TEAE",[1],0
same,"Fatigue, subjects with TEAE",[1],2
same,"Flatulence, subjects with TEAE",[1],1
same,"Headache, subjects with TEAE",[1],1
same,"Injection site erythema, subjects with TEAE",[1],0
same,"Injection site haematoma, subjects with TEAE",[1],3
same,"Injection site pain, subjects with TEAE",[1],1
same,"Injection site pruritus, subjects with TEAE",[1],0
same,"Injection site tenderness, subjects with TEAE",[1],0
same,"Insomnia, subjects with TEAE",[1],0
same,"Muscle spasms, subjects with TEAE",[1],0
same,"Myalgia, subjects with TEAE",[1],1
same,"Nausea, subjects with TEAE",[1],0
same,"Somnolence, subjects with TEAE",[1],1
same,"Vomiting, subjects with TEAE",[1],0
same,"Abdominal pain, subjects with TEAE",[2],0
same,"Application site irritation, subjects with TEAE",[2],3
same,"Catheter site haematoma, subjects with TEAE",[2],0
same,"Catheter site pain, subjects with TEAE",[2],0
same,"Decreased appetite, subjects with TEAE",[2],0
same,"Diarrhoea, subjects with TEAE",[2],1
same,"Dizziness, subjects with TEAE",[2],1
same,"Dry skin, subjects with TEAE",[2],2
same,"Dyspepsia, subjects with TEAE",[2],1
same,"Fatigue, subjects with TEAE",[2],0
same,"Flatulence, subjects with TEAE",[2],1
same,"Headache, subjects with TEAE",[2],1
same,"Injection site erythema, subjects with TEAE",[2],1
same,"Injection site haematoma, subjects with TEAE",[2],3
same,"Injection site pain, subjects with TEAE",[2],0
same,"Injection site pruritus, subjects with TEAE",[2],2
same,"Injection site tenderness, subjects with TEAE",[2],0
same,"Insomnia, subjects with TEAE",[2],1
same,"Muscle spasms, subjects with TEAE",[2],0
same,"Myalgia, subjects with TEAE",[2],0
same,"Nausea, subjects with TEAE",[2],2
same,"Somnolence, subjects with TEAE",[2],0
same,"Vomiting, subjects with TEAE",[2],0
same,"Abdominal pain, subjects with TEAE",[3],1
same,"Application site irritation, subjects with TEAE",[3],0
same,"Catheter site haematoma, subjects with TEAE",[3],1
same,"Catheter site pain, subjects with TEAE",[3],4
same,"Decreased appetite, subjects with TEAE",[3],1
same,"Diarrhoea, subjects with TEAE",[3],2
same,"Dizziness, subjects with TEAE",[3],0
same,"Dry skin, subjects with TEAE",[3],0
same,"Dyspepsia, subjects with TEAE",[3],2
same,"Fatigue, subjects with TEAE",[3],0
same,"Flatulence, subjects with TEAE",[3],1
same,"Headache, subjects with TEAE",[3],3
same,"Injection site erythema, subjects with TEAE",[3],4
same,"Injection site haematoma, subjects with TEAE",[3],5
same,"Injection site pain, subjects with TEAE",[3],0
same,"Injection site pruritus, subjects with TEAE",[3],3
same,"Injection site tenderness, subjects with TEAE",[3],0
same,"Insomnia, subjects with TEAE",[3],1
same,"Muscle spasms, subjects with TEAE",[3],2
same,"Myalgia, subjects with TEAE",[3],4
same,"Nausea, subjects with TEAE",[3],1
same,"Somnolence, subjects with TEAE",[3],3
same,"Vomiting, subjects with TEAE",[3],0
same,"Abdominal pain, subjects with TEAE",[4],1
same,"Application site irritation, subjects with TEAE",[4],0
same,"Catheter site haematoma, subjects with TEAE",[4],0
same,"Catheter site pain, subjects with TEAE",[4],0
same,"Decreased appetite, subjects with TEAE",[4],2
same,"Diarrhoea, subjects with TEAE",[4],0
same,"Dizziness, subjects with TEAE",[4],1
same,"Dry skin, subjects with TEAE",[4],0
same,"Dyspepsia, subjects with TEAE",[4],2
same,"Fatigue, subjects with TEAE",[4],1
same,"Flatulence, subjects with TEAE",[4],1
same,"Headache, subjects with TEAE",[4],4
same,"Injection site erythema, subjects with TEAE",[4],3
same,"Injection site haematoma, subjects with TEAE",[4],3
same,"Injection site pain, subjects with TEAE",[4],2
same,"Injection site pruritus, subjects with TEAE",[4],0
same,"Injection site tenderness, subjects with TEAE",[4],2
same,"Insomnia, subjects with TEAE",[4],1
same,"Muscle spasms, subjects with TEAE",[4],0
same,"Myalgia, subjects with TEAE",[4],0
same,"Nausea, subjects with TEAE",[4],5
same,"Somnolence, subjects with TEAE",[4],3
same,"Vomiting, subjects with TEAE",[4],3
same,subjects with transient hypercalcaemia,"Part B, 80 μg/d, well-tolerated, resolved spontaneously after day 14",six of the eight
same,"Abdominal pain, subjects with TEAE",[5],0
same,"Application site irritation, subjects with TEAE",[5],0
same,"Catheter site haematoma, subjects with TEAE",[5],1
same,"Catheter site pain, subjects with TEAE",[5],1
same,"Decreased appetite, subjects with TEAE",[5],0
same,"Diarrhoea, subjects with TEAE",[5],0
same,"Dizziness, subjects with TEAE",[5],1
same,"Dry skin, subjects with TEAE",[5],0
same,"Dyspepsia, subjects with TEAE",[5],0
same,"Fatigue, subjects with TEAE",[5],0
same,"Flatulence, subjects with TEAE",[5],0
same,"Headache, subjects with TEAE",[5],1
same,"Injection site erythema, subjects with TEAE",[5],2
same,"Injection site haematoma, subjects with TEAE",[5],3
same,"Injection site pain, subjects with TEAE",[5],0
same,"Injection site pruritus, subjects with TEAE",[5],1
same,"Injection site tenderness, subjects with TEAE",[5],1
same,"Insomnia, subjects with TEAE",[5],0
same,"Muscle spasms, subjects with TEAE",[5],0
same,"Myalgia, subjects with TEAE",[5],0
same,"Nausea, subjects with TEAE",[5],4
same,"Somnolence, subjects with TEAE",[5],2
same,"Vomiting, subjects with TEAE",[5],1
same,"Abdominal pain, subjects with TEAE",[6],2 (5) n (%)
same,"Application site irritation, subjects with TEAE",[6],3 (7.5) n (%)
same,"Catheter site haematoma, subjects with TEAE",[6],5 (12.5) n (%)
same,"Catheter site pain, subjects with TEAE",[6],6 (15) n (%)
same,"Decreased appetite, subjects with TEAE",[6],3 (7.5) n (%)
same,"Diarrhoea, subjects with TEAE",[6],3 (7.5) n (%)
same,"Dizziness, subjects with TEAE",[6],3 (7.5) n (%)
same,"Dry skin, subjects with TEAE",[6],2 (5) n (%)
same,"Dyspepsia, subjects with TEAE",[6],5 (12.5) n (%)
same,"Fatigue, subjects with TEAE",[6],3 (7.5) n (%)
same,"Flatulence, subjects with TEAE",[6],4 (10) n (%)
same,"Headache, subjects with TEAE",[6],10 (25) n (%)
same,"Injection site haematoma, subjects with TEAE",[6],17 (42.5) n (%)
same,"Injection site pain, subjects with TEAE",[6],3 (7.5) n (%)
same,"Injection site pruritus, subjects with TEAE",[6],6 (15) n (%)
same,"Injection site tenderness, subjects with TEAE",[6],3 (7.5) n (%)
same,"Insomnia, subjects with TEAE",[6],3 (7.5) n (%)
same,"Muscle spasms, subjects with TEAE",[6],2 (5) n (%)
same,"Myalgia, subjects with TEAE",[6],5 (12.5) n (%)
same,"Nausea, subjects with TEAE",[6],12 (30) n (%)
same,"Somnolence, subjects with TEAE",[6],9 (22.5) n (%)
same,"Vomiting, subjects with TEAE",[6],4 (10) n (%)
same,"telemetry (Part A) or ECG (Part B), blood pressure, heart rate, respiratory rate",Parts A and B,No changes of clinical relevance
same,serious or severe AEs,"Parts A and B: single up to 120 μg, multiple up to 80 μg/day for 14 days",No serious or severe AEs were reported
same,"vomiting (mild/moderate AE associated with hypercalcaemia), subjects",highest doses tested,four out of 40
